Results reported in patent US10852302B2, “Method for evaluation of function of phagocyte” (MOCHIDA PHARMACEUTICAL CO., LTD., priority 2008, dated 2020).

How the values were obtained:
Type in all cases: cell-based
[1] = test system: granulocyte from rabbit peritoneal cavity; assay: Action of phagocytosis inhibitors on sCD14-ST production by rabbit granulocyte stimulated with E. coli; settings: inhibitor preincubated 37° C. 30 minutes, then 20 times by cell count of E. coli, 2 hours (FIG. 6)
Method: (§1) Two step sandwich ELISA system was constructed by using the F1301-9-1 antibody produced in Example 1-(4) for the solid phase antibody, and the F1258-7-2 Fab′-HRP antibody prepared in Example 3-(1) for the labeling antibody. More specifically, the F1301-9-1 antibody was diluted with D-PBS (pH 7.4) to 10 μg/mL, and added to the wells of immunoplate (Maxisorb, Nunc) at 50 μL/well. After allowing the reaction to proceed overnight at 4° C., the well was washed 5 times with ion exchanged water. D-PBS (pH 7.4) containing 5% StabilGuard (SurModics) and 0.1% Tween 20 was added to the wells at 200 μL/well for blocking. Next, the specimen was diluted by using 150 mM phosphate buffer (pH 6.0) containing 5% normal rabbit serum (serum from which soluble CD14 antigen has been removed by using the rabbit CD14 affinity antibody column), 1% BSA, and 0.1% Tween 20 for dilution, and the diluted specimen was added to the well at 50 μL/well and allowed to react at 25° C. for 3 hours. After completion of the reaction, the well was washed 5 times with physiological saline containing 0.05% Tween 20. The F1258-7-2 Fab′-HRP was diluted with 75 mM phosphate buffer (pH 6.4) containing 4% rat serum and 0.05% Tween 20, and added to the well at 50 μL/well. […] The reaction was ceased with 0.5M sulfuric acid solution, and absorbance at 450 nm was measured by using a plate spectrophotometer (NJ-2100, Intermed Japan). […]

[2] = test system: human peripheral blood granulocyte; assay: Action of phagocytosis inhibitors on sCD14-ST production by human granulocyte stimulated with E. coli; settings: inhibitor preincubated 37° C. 1 hour, then 30 times by cell count of E. coli, 2 hours (FIG. 9)
Method: Granulocyte fraction was prepared from peripheral blood collected from a healthy human donor by density-gradient centrifugation using two layers each having a specific gravity of d=1.077 and d=1.119.
Various leukocyte stimulants were added to the granulocyte to evaluate the amount of sCD14-ST produced. More specifically, human peripheral blood granulocyte collected in Example 7-(1) was suspended in RPMI1640 culture containing 10% healthy human serum, 2 mM Glutamin, 10 mM HEPES, and 10 ng/ml G-CSF (SIGMA R8758) to a cell concentration of 0.5×10^7 cells/mL, and added to the wells of a 96 well culture plate (Nunclon Surface, Nunc) at 100 μL/well. The granulocyte was incubated overnight at 37° C. in the presence of 5% carbon dioxide. Next, various stimulants were adjusted to 1.5 fold concentration with HBSS buffer containing 10% healthy human serum, 2 mM Glutamin, and 10 mM HEPES, and added to the well at 200 μL/well. After incubating at 37° C. for 2 hours, the supernatant was collected by centrifugation, and human sCD14-ST was measured by using the assay kit described in Example 7-(3) of WO 2005/108429. More specifically, the sandwich assay kit used was the one containing the antibody which binds to the peptide consisting the amino acid sequence of 53rd to 68th amino acid residue of the human CD14 (S68 antibody), which specifically recognizes the human sCD14-ST. […]

[3] = test system: granulocyte from the rabbit peritoneal cavity; assay: High molecular weight sCD14 production by rabbit granulocyte stimulated with leukocyte stimulants; settings: stimulant, kit for high molecular weight sCD14 (R&D) (FIG. 5)
[4] = test system: granulocyte from the rabbit peritoneal cavity; assay: sCD14-ST production by rabbit peritoneal granulocyte stimulated with leukocyte stimulants; settings: rabbit granulocyte 1×10^7 cells/mL, stimulant, 37° C. for 2 hours, supernatant, sandwich ELISA (FIG. 4)
Method: as §1, with “hours.” for “hours. After completion of the reaction, the well was washed 5 times with physiological saline containing 0.05% Tween 20. The F1258-7-2 Fab′-HRP was diluted with 75 mM phosphate buffer (pH 6.4) containing 4% rat serum and 0.05% Tween 20, and added to the well at 50 μL/well.”
Various leukocyte stimulants were added to the granulocyte to evaluate the amount of sCD14-ST produced. […] After incubating at 37° C. for 2 hours, the supernatant was collected by centrifugation and sCD14-ST was measured by the assay system of Example 3-(2).

## C=C1[C@@H](C)[C@H]2[C@H](Cc3ccccc3)NC(=O)[C@]23[C@H](OC(C)=O)/C=C/[C@@](C)(O)C(=O)[C@@H](C)C/C=C/[C@H]3[C@@H]1O [Cytochalasin D]
[1]
  Production of the rabbit sCD14-ST (effect of inhibitor): inhibited
[2]
  sCD14-ST production (effect of inhibitor): inhibited the sCD14-ST production

## CCCCCCCCCCCCCC(=O)O[C@@H]1[C@@H](C)[C@@]2(O)[C@@H](C=C(CO)C[C@]3(O)C(=O)C(C)=C[C@@H]23)[C@@H]2C(C)(C)[C@]12OC(C)=O [PMA, phorbol myristate acetate]
[3]
  production of the high molecular weight sCD14: increase in the production of the high molecular weight sCD14 was recognized
[4]
  sCD14-ST production: increase in the sCD14-ST was not recognized

## COC[C@H]1OC(=O)c2coc3c2[C@@]1(C)C1=C(C3=O)[C@@H]2CCC(=O)[C@@]2(C)C[C@H]1OC(C)=O [Wortomanin]
[1]
  Production of the rabbit sCD14-ST (effect of inhibitor): inhibited
[2]
  sCD14-ST production (effect of inhibitor): inhibited the sCD14-ST production

## CSCC[C@H](NC=O)C(=O)N[C@@H](CC(C)C)C(=O)N[C@@H](Cc1ccccc1)C(=O)O [fMLP, formyl methionyl leucyl phenylalanine]
[4]
  sCD14-ST production: increase in the sCD14-ST was not recognized
